One assay addresses KAT-5 (Homo sapiens (Human), UniProt Q92993). Put plainly: KAT-5 biochemical inhibition assay (SAMDI mass spectrometry). The gist of the method:
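Acetylation of 1 μM peptide by 9 nM enzyme with 0.5 μM acetyl-CoA (final) was run 90 min at 25° C in Tris pH 8.0 buffer with DTT, after compound preincubation at 2% DMSO. Formic acid stopped the reaction, and product was quantified by SAMDI mass spectrometry to derive IC50.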

For another assay, the target named is KAT-6A (Homo sapiens (Human), UniProt Q92794). Nature of the assay: KAT-6A biochemical inhibition assay (SAMDI mass spectrometry). The gist of the method: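 IC50 values came from SAMDI time-of-flight mass spectrometry after formic acid quench (0.5% final). Acetylation ran 90 min at 25 °C with 1 μM acetyl coenzyme A and 1 μM peptide substrate, following compound pre-incubation with 12.5 nM KAT-6A in Tris buffer pH 8.0 containing DTT, 2% DMSO final.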

The target of another assay is KAT-7 (Homo sapiens (Human), UniProt O95251). Put plainly: KAT-7 biochemical inhibition assay (SAMDI mass spectrometry). On the procedure:
(§1) KAT-7. Enzyme assay buffer was 50 mM Tris pH 8.0, 0.002% Tween20, 0.005% bovine skin gelatin, and 1 mM dithiothreitol (DTT). For determination of IC50 values, compounds were serially diluted with 2% (v/v) DMSO in the final reaction, pre-incubating each dilution of each compound with 40 μL of assay buffer containing KAT-7 enzyme (6 nM final concentration). 10 μL of assay buffer containing 1 μM peptide substrate and 2 μM acetyl coenzyme A (final concentrations) was added. Reactions (50 μL total) were then carried out at 25° C. for 120 minutes. Reactions were terminated by the addition of 0.5% formic acid (final concentration), and a sample of each reaction was analyzed by SAMDI Tech, Inc. (Chicago, Ill.) using self-assembled monolayer desorption/ionization time-of-flight mass spectrometry (Mrksich, M. (2008) Mass spectrometry of self-assembled monolayers: a new tool for molecular surface science. ACS Nano 2, 7-18).

The next assay addresses KAT-8 (Homo sapiens (Human), UniProt Q9H7Z6). Put plainly: KAT-8 biochemical inhibition assay (SAMDI mass spectrometry). On the procedure: as §1, with “KAT-8. Enzyme” for “KAT-7. Enzyme”, “containing KAT-8” for “containing KAT-7”, “enzyme (12.5” for “enzyme (6”, “and 5” for “and 2”, “for 90” for “for 120”

The structures appear in SMILES notation.

IC50 data for 31 compounds are collected here from patent US11685732B2, “MYST family histone acetyltransferase inhibitors” (Epizyme, Inc., priority 2017, dated 2023).

As a reminder, the IC50 is the concentration that inhibits the measured activity by half.

Sequence of KAT-5 (Q92993 other isoform, or with tags, fused parts or gaps): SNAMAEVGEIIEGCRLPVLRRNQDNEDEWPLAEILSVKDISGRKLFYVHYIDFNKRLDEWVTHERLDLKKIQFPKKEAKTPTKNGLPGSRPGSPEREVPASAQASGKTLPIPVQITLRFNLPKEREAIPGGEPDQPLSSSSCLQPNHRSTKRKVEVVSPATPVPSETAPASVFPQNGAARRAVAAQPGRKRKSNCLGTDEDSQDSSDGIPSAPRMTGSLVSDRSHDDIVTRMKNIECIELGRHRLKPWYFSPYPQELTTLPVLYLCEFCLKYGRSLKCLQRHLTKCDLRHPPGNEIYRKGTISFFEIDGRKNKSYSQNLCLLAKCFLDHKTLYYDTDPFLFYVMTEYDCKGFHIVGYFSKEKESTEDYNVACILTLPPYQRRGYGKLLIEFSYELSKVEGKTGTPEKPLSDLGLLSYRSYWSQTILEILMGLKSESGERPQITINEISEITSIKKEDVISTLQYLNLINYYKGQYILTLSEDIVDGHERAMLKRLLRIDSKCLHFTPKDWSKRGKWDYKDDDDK
Sequence of KAT-6A (Q92794 other isoform, or with tags, fused parts or gaps): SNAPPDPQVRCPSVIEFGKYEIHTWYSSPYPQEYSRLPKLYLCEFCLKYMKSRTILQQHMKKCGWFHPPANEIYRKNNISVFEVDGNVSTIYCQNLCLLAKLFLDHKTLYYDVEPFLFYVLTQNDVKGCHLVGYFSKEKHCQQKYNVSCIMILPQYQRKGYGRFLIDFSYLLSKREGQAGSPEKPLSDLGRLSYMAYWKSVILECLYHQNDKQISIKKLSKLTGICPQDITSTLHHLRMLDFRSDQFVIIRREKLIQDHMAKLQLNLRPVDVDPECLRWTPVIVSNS
Sequence of KAT-7 (O95251 other isoform, or with tags, fused parts or gaps): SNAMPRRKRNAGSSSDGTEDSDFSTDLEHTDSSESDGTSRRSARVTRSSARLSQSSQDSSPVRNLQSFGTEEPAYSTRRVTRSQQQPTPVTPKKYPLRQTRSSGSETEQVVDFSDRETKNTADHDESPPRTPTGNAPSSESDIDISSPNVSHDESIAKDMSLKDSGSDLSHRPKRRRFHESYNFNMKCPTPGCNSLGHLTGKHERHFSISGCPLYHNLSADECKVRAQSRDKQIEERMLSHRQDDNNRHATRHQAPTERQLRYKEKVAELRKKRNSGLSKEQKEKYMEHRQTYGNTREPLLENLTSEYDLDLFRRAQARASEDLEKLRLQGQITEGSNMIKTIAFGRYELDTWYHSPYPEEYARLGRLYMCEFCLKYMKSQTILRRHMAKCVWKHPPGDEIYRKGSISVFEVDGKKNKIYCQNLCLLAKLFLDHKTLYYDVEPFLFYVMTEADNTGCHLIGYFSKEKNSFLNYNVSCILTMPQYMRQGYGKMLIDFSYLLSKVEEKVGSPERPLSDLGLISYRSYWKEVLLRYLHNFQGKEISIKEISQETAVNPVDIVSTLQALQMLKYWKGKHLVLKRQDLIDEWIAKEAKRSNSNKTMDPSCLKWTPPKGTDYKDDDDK
Sequence of KAT-8 (Q9H7Z6 other isoform, or with tags, fused parts or gaps): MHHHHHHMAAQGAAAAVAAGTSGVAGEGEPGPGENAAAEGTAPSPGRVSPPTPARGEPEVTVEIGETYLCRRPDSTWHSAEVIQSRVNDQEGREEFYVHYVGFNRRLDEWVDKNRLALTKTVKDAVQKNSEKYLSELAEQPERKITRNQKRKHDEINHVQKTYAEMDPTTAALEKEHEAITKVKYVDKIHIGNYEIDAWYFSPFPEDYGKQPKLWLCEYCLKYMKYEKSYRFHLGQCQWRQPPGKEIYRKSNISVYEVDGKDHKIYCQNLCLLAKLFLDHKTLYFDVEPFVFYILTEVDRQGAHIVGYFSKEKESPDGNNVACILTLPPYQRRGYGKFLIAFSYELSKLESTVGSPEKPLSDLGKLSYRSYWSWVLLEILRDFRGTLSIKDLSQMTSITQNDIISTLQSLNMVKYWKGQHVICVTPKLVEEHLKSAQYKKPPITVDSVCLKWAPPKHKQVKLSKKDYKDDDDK

In the case of `Cc1nc(-c2cc(Cl)c(F)c(C(=O)NNS(=O)(=O)C3CCCCC3)c2)cn1C` [Compound I-26], the IC50 on KAT-5 is under 10 µM; on KAT-6A, 10 to 50 µM; against KAT-7 it was under 10 µM; on KAT-8, over 100 µM.
As for `Cn1cnc(-c2cc(Cl)c(F)c(C(=O)NNS(=O)(=O)C3CCOC3)c2)c1` (stereo not shown) [Compound I-27], the half-maximal inhibitory concentration (IC50) at KAT-5 is 10 to 50 µM; on KAT-6A, 50 to 100 µM; at KAT-7 it was under 10 µM; against KAT-8 it was over 100 µM.
For `CCn1cnc(-c2cc(Cl)c(F)c(C(=O)NNS(=O)(=O)CC3CCCCC3)c2)c1C` [Compound I-28], in that order: 10 to 50 µM, over 100 µM, under 10 µM and over 100 µM.
The like results for `Cc1ncc(-c2cc(Cl)c(F)c(C(=O)NNS(=O)(=O)CC3CCCCC3)c2)n1C` [Compound I-29] were, in that order, 10 to 50 µM, over 100 µM, 50 to 100 µM and over 100 µM.
For `Cc1ncc(-c2cc(Cl)c(F)c(C(=O)NNS(=O)(=O)CC3CCOCC3)c2)n1C` [Compound I-30], in that order: over 100 µM, over 100 µM, over 100 µM and over 100 µM.
Turning to `Cn1cnc(-c2cc(Cl)c(F)c(C(=O)NNS(=O)(=O)CC3CCC3)c2)c1` [Compound I-31], the IC50 was under 10 µM on KAT-5, under 10 µM at KAT-6A, under 10 µM against KAT-7 and 10 to 50 µM on KAT-8.
Consider `Cn1cnc(-c2cc(Cl)c(F)c(C(=O)NNS(=O)(=O)CC3CCCN(C(=O)C4CCOCC4)C3)c2)c1` (stereo not shown) [Compound I-32], for which the half-inhibitory concentration (IC50) against KAT-5 was under 10 µM; against KAT-6A, under 10 µM; against KAT-7 it was under 10 µM; against KAT-8, over 100 µM.
Turning to `Cc1nc(-c2cc(Cl)c(F)c(C(=O)NNS(=O)(=O)CC3CCOCC3)c2)cn1C` [Compound I-33], the concentration for half-maximal inhibition (IC50) was 10 to 50 µM at KAT-5, 10 to 50 µM against KAT-6A, under 10 µM at KAT-7 and over 100 µM at KAT-8.
As to `O=C(NNS(=O)(=O)CC1CCCCC1)c1cc(-n2cccn2)cc(Cl)c1F` [Compound I-34], the half-maximal inhibitory concentration (IC50) is under 10 µM at KAT-5, under 10 µM on KAT-6A, 10 to 50 µM on KAT-7 and over 100 µM against KAT-8.
Take `COCC(=O)N1CCCC(CS(=O)(=O)NNC(=O)c2cc(-c3cn(C)cn3)cc(Cl)c2F)C1` (stereo not shown) [Compound I-35]: the half-inhibitory concentration (IC50) on KAT-5 was under 10 µM; at KAT-6A it was under 10 µM; against KAT-7 it was under 10 µM; at KAT-8, 10 to 50 µM.
As to `Cc1cnn(-c2cc(Cl)c(F)c(C(=O)NNS(=O)(=O)CC3CCOCC3)c2)c1` [Compound I-36], the half-maximal inhibitory concentration (IC50) is 10 to 50 µM against KAT-5, under 10 µM against KAT-6A, under 10 µM against KAT-7 and over 100 µM against KAT-8.
As for `Cc1nc(-c2cc(Cl)c(F)c(C(=O)NNS(=O)(=O)C3CCOCC3)c2)cn1C` [Compound I-37], the IC50 is 50 to 100 µM against KAT-5, 10 to 50 µM on KAT-6A, 10 to 50 µM against KAT-7 and over 100 µM against KAT-8.
For `CCn1cnc(C)c1-c1cc(Cl)c(F)c(C(=O)NNS(=O)(=O)CC2CCCCC2)c1` [Compound I-40], the IC50 against KAT-5, on KAT-6A, at KAT-7 and at KAT-8 was over 100 µM throughout.
On to `O=C(NNS(=O)(=O)CC1CCOCC1)c1cc(-n2cccn2)cc(Cl)c1F` [Compound I-41], for which the half-maximal inhibitory concentration (IC50) against KAT-5 is 10 to 50 µM; at KAT-6A, under 10 µM; against KAT-7, 50 to 100 µM; against KAT-8, over 100 µM.
The like results for `Cn1cnc(-c2cc(Cl)c(F)c(C(=O)NNS(=O)(=O)C3COC3)c2)c1` [Compound I-42] were, in that order, over 100 µM, over 100 µM, under 10 µM and over 100 µM.
For `Cc1ccn(-c2cc(Cl)c(F)c(C(=O)NNS(=O)(=O)CC3CCOCC3)c2)n1` [Compound I-43], in that order: 10 to 50 µM, under 10 µM, 50 to 100 µM and over 100 µM.
The like results for `O=C(NNS(=O)(=O)CC1CCCCC1)c1cc(-n2ccnc2)cc(Cl)c1F` [Compound I-44] were, in that order, 50 to 100 µM, over 100 µM, over 100 µM and over 100 µM.
Consider `Cc1ncn(C)c1-c1cc(Cl)c(F)c(C(=O)NNS(=O)(=O)CC2CCCCC2)c1` [Compound I-45], for which the 50% inhibitory concentration (IC50) against KAT-5 is over 100 µM; against KAT-6A, over 100 µM; on KAT-7, 50 to 100 µM; at KAT-8 it was over 100 µM.
Turning to `CCn1cc(-c2cc(Cl)c(F)c(C(=O)NNS(=O)(=O)C3CCCCC3)c2)nc1C` [Compound I-46], the IC50 was 10 to 50 µM on KAT-5, 50 to 100 µM at KAT-6A, under 10 µM on KAT-7 and over 100 µM against KAT-8.
For `O=C(NNS(=O)(=O)CC1CCOCC1)c1cc(-n2ccnc2)cc(Cl)c1F` [Compound I-47], in that order: under 10 µM, 50 to 100 µM, over 100 µM and over 100 µM.
The like results for `O=C(NNS(=O)(=O)CC1CCOCC1)c1cc(-c2cscn2)cc(Cl)c1F` [Compound I-48] were, in that order, under 10 µM, under 10 µM, under 10 µM and over 100 µM.
`Cc1cn(-c2cc(Cl)c(F)c(C(=O)NNS(=O)(=O)CC3CCOCC3)c2)cn1` [Compound I-49]: the 50% inhibitory concentration (IC50) on KAT-5, on KAT-6A, against KAT-7 and on KAT-8 was over 100 µM each time.
As for `Cc1cn(-c2cc(Cl)c(F)c(C(=O)NNS(=O)(=O)CC3CCOCC3)c2)nn1` [Compound I-50], the IC50 against KAT-5 is under 10 µM; on KAT-6A, under 10 µM; against KAT-7, 10 to 50 µM; on KAT-8, over 100 µM.
For `Cn1cnc(-c2cc(Cl)c(F)c(C(=O)NNS(=O)(=O)CC3CCCCC3)c2)c1` [Compound I-51, N′-(3-chloro-2-fluoro-5-(1-methyl-1H-imidazol-4-yl)benzoyl)-1-cyclohexyl methanesulfonohydrazide], the half-maximal inhibitory concentration (IC50) against KAT-5 was under 10 µM; on KAT-6A, under 10 µM; against KAT-7 it was under 10 µM; against KAT-8, 10 to 50 µM.
Regarding `CCn1cc(S(=O)(=O)NNC(=O)c2cc(-c3cn(C)cn3)cc(Cl)c2F)cn1` [Compound I-52], the IC50 on KAT-5 is 10 to 50 µM; at KAT-6A it was 10 to 50 µM; against KAT-7, under 10 µM; against KAT-8 it was over 100 µM.
Turning to `Cn1cnc(-c2cc(Cl)c(F)c(C(=O)NNS(=O)(=O)CC3CCCN(S(C)(=O)=O)C3)c2)c1` (stereo not shown) [Compound I-53], the half-inhibitory concentration (IC50) against KAT-5 was under 10 µM; against KAT-6A, under 10 µM; on KAT-7 it was under 10 µM; against KAT-8, 50 to 100 µM.
Regarding `Cc1ncc(-c2cc(Cl)c(F)c(C(=O)NNS(=O)(=O)C3CCOCC3)c2)n1C` [Compound I-54], the 50% inhibitory concentration (IC50) on KAT-5 is 50 to 100 µM; at KAT-6A it was over 100 µM; at KAT-7, over 100 µM; on KAT-8, over 100 µM.
Consider `Cn1cc(-c2cc(Cl)c(F)c(C(=O)NNS(=O)(=O)CC3CCCCC3)c2)nn1` [Compound I-55], for which the half-maximal inhibitory concentration (IC50) on KAT-5 was under 10 µM; at KAT-6A it was under 10 µM; at KAT-7 it was under 10 µM; against KAT-8, 10 to 50 µM.
In the case of `COCCC(=O)N1CCC(CS(=O)(=O)NNC(=O)c2cc(-c3cn(C)cn3)cc(Cl)c2F)C1` (stereo not shown) [Compound I-56], the half-inhibitory concentration (IC50) against KAT-5 is 10 to 50 µM; against KAT-6A it was 10 to 50 µM; against KAT-7 it was under 10 µM; against KAT-8, 10 to 50 µM.
Regarding `CC(=O)N1CCC(CS(=O)(=O)NNC(=O)c2cc(-c3cn(C)cn3)cc(Cl)c2F)C1` (stereo not shown) [Compound I-57], the IC50 was 10 to 50 µM on KAT-5, 10 to 50 µM at KAT-6A, under 10 µM on KAT-7 and 10 to 50 µM against KAT-8.
As to `Cc1nn(C)c(C)c1-c1cc(Cl)c(F)c(C(=O)NNS(=O)(=O)CC2CCOCC2)c1` [Compound I-58], the IC50 against KAT-5, against KAT-6A, at KAT-7 and at KAT-8 was over 100 µM each time.
